What was measured:
[1] = Mice pharmacokinetics (IV and oral), plasma by LC-MS/MS; format: in vivo, mice (BALB/c mice)
Protocol: (§1) Protocol: All animals (mice (BALB/c mice), rats (Wistar rat strains), and dogs (beagle, non-naïve)) were fasted overnight (12 hours) before dosing and continued till 4.0 hours after administration of test item. The blood samples (all collections each of 150 μL from each animal) were collected according to the sampling schedule from orbital sinus or jugular vein into the micro centrifuge tube containing dipotassium EDTA as an anticoagulant. Blood samples were centrifuged immediately with a speed of 4000 RPM for 10 min at 4° C. and separated plasma samples were frozen at below −80° C. and stored until analysis. The plasma concentrations of test item in all samples were analysed by LC-MS/MS method Pharmacokinetic parameters viz. Cmax, AUC0-t, AUC0-∞, Tmax, and t½, were estimated by using WinNonlin software.

[2] = Dog pharmacokinetics (IV and oral), plasma by LC-MS/MS; format: in vivo, dogs (beagle, non-naïve)
Protocol: as §1

[3] = Rat pharmacokinetics (oral and IV), plasma by LC-MS/MS; format: in vivo, rats (Wistar rat strains); conditions: for AUC(0-t): Compound 1 prepared by Method 2, Compound 1D prepared by Method 2, read-out: AUC0-24
Protocol: The oral bioavailability of Compound 1 and its salts were evaluated in rats. The protocol for the pharmacokinetic (PK) studies in rats is provided below.
Formulation 1: Polysorbate 80 (10% v/v)+Methyl Cellulose (MC) (0.5% w/v) • 1. 200 mg^#of the test compound was weighed and transferred into a mortar. • 2. 1.0 mL of polysorbate 80 (10% v/v of the final suspension) was added to the mortar and the test item was triturated to afford a smooth paste. • 3. 9.0 mL of 0.5% methyl cellulose (4000 cps) was added and triturated to afford a fine suspension. • 4. The final strength of the formulation was 20.0 mg/mL. #For salts of the test compound in order to achieve the equivalent dose level on a molar basis as the free base, a correction factor was used based on the salt and purity. Formulation 2: Propylene Glycol (40% v/v)+60% Methyl Cellulose (MC) (0.5% w/v) • 1. 1400 mg #of the test compound was weighed and transferred into a glass beaker. • 2. 28.0 mL of propylene glycol (1,2-popanediol) (40% v/v of the final volume) was added to the glass beaker and sonicated for 20 min to dissolve. (strength is 50 mg/mL) • 3. At the time of dosing, 20 mL of propylene glycol (50.0 mg/mL) and 30.0 mL of 0.5% methyl cellulose (4000 cps) were mixed with continuous stirring to afford a clear solution • 4. The final strength of the formulation was 20.0 mg/mL. • #For salts of the test compound in order to achieve the equivalent dose level on a molar basis as the free base, a correction factor was used based on the salt and purity.
as §1

[4] = test system: BRCA mutant and non-BRCA mutant cancer cell lines; experiment: Cell proliferation assay to determine GI50 in BRCA mutant and non-BRCA mutant cancer cell lines; format: cell-based; conditions: range over BRCA mutant and non-BRCA mutant cancer cell lines; treatment 72, 120 or 144 hours
Protocol: On Day “0” the test cells were plated in 100 μL/well in complete media in a 96-well plate in triplicates and plates were incubated at 37° C. and 5% CO2. On Day 1, 10 μL of MTT (5 mg/ml) were added to the column designated for Day “0”. It was mixed well and incubated at 37° C. and 5% CO2 for 3.5 h. Cells were pelleted down at 4000 rpm for 10 minutes. Media was aspirated out and 150 μL of DMSO were added to the cells and mixed by pipetting to dissolve the crystals. Plate was read at A560 nm and A640. DMSO dilutions of the inhibitors (Compound 1 or Compound 1D) were diluted to 3× of required concentration in growth medium. Cells in each well were treated with 50 μL of complete media containing inhibitor. DMSO concentration in the well was 0.1%. Plates were incubated at 37° C. and 5% CO2 as required for 144 hours. 15 μL of MTT (5 mg/mL) was added to the wells. Plates were incubated at 37° C. and 5% CO2 for 3.5 hours. After incubation, cells are pelleted down at 4000 rpm for 10 min. Media was aspirated and 150 μL of DMSO per well were added to dissolve the formazan crystals. Plate was read at A560 nm and A640. […]
Cancer cell lines were plated at desired density in their respective complete media and incubated overnight at 37° C. and 5% CO2. […] At the end of the treatment period, cell viability was measured and GI50 values were calculated.

[5] = oral, 100 mg/kg, Formulation 1: Polysorbate 80 (10% v/v) + MC (0.5% w/v), Compound 1 prepared by Method 2, Compound 1D prepared by Method 2
[6] = oral, 100 mg/kg, Formulation 1: Polysorbate 80 (10% v/v) + MC (0.5% w/v), Compound 1 prepared by Method 2, Compound 1D prepared by Method 2, 100 mg/kg
[7] = oral, 100 mg/kg, Formulation 2: PG (40% v/v) + 60% MC (0.5% w/v), Compound 1D prepared by Method 2
[8] = oral, 100 mg/kg, Formulation 2: PG (40% v/v) + 60% MC (0.5% w/v), Compound 1D prepared by Method 3
[9] = oral, 100 mg/kg, Formulation 1: Polysorbate 80 (10% v/v) + MC (0.5% w/v), Compound 1C prepared by Method 1
[10] = oral, 100 mg/kg, Formulation 1: Polysorbate 80 (10% v/v) + MC (0.5% w/v), Compound 1C prepared by Method 2
[11] = Wistar, plasma, oral, 100 mg/kg, Formulation 1: Polysorbate 80 (10% v/v) + MC (0.5% w/v), Compound 1 prepared by Method 2, Compound 1D prepared by Method 2
[12] = Wistar, plasma, oral, 100 mg/kg, Formulation 1: Polysorbate 80 (10% v/v) + MC (0.5% w/v)
[13] = Wistar, plasma, oral, 100 mg/kg, Formulation 1: Polysorbate 80 (10% v/v) + MC (0.5% w/v), Compound 1 prepared by Method 2, Compound 1D prepared by Method 2, read-out: Tmax

CS(=O)(=O)O.C[C@]1(O)C(=O)N(c2cncc(Cc3n[nH]c(=O)c4ccccc34)c2)c2ccccc21 [Compound 1D, (R)-(+)-4-((5-(3-Hydroxy-3-methyl-2-oxoindolin-1-yl)pyridin-3-yl)methyl)phthalazin-1(2H)-one, methane sulfonate]
AUC0-24 ([1]; IV, 1 mg/kg): 1.12 µM·h | C0 ([1]; IV, 1 mg/kg): 3.12 µM | Cmax ([1]; IV, 1 mg/kg): 2.87 µM | AUC0-24 ([1]; oral, 10 mg/kg): 5.64 µM·h | Cmax ([1]; oral, 10 mg/kg): 7.62 µM | Tmax ([1]; oral, 10 mg/kg): 15 min | AUC0-24 ([2]; IV, 1 mg/kg): 2.73 µM·h | C0 ([2]; IV, 1 mg/kg): 4.11 µM | Cmax ([2]; IV, 1 mg/kg): 3.47 µM | AUC0-24 ([2]; oral, 20 mg/kg): 57.05 µM·h | Cmax ([2]; oral, 20 mg/kg): 22.9 µM | Tmax ([2]; oral, 20 mg/kg): 30 min | AUC0-24 ([3]; IV, 1 mg/kg): 1.18 µM·h | C0 ([3]; IV, 1 mg/kg): 5.25 µM | Cmax ([3]; IV, 1 mg/kg): 4.47 µM | AUC0-24 ([3]; oral, 10 mg/kg): 8.96 µM·h | Cmax ([3]; oral, 10 mg/kg): 8.43 µM | Tmax ([3]; oral, 10 mg/kg): 22.8 min | AUC0-24 [3, 5]: 34.71 µM·h | Tmax [3, 5]: 15 min | Cmax [3, 6]: 13 µM | AUC0-24 [3, 7]: 135.36 µM·h | Cmax [3, 7]: 55.6 µM | Tmax [3, 7]: 30 min | AUC0-24 [3, 8]: 139.36 µM·h | Cmax [3, 8]: 53.7 µM | Tmax [3, 8]: 30 min

C[C@]1(O)C(=O)N(c2cncc(Cc3n[nH]c(=O)c4ccccc34)c2)c2ccccc21.O=S(=O)(O)c1ccccc1 [Compound 1B, (R)-(+)-4-((5-(3-hydroxy-3-methyl-2-oxoindolin-1-yl)pyridin-3-yl)methyl)phthalazin-1(2H)-one, benzene sulfonate]
AUC0-24 [3, 5]: 32.43 µM·h | Tmax [3, 5]: 30 min | Cmax [3, 6]: 17.2 µM

C[C@]1(O)C(=O)N(c2cncc(Cc3n[nH]c(=O)c4ccccc34)c2)c2ccccc21.Cc1ccc(S(=O)(=O)O)cc1 [Compound 1C, (R)-(+)-4-((5-(3-hydroxy-3-methyl-2-oxoindolin-1-yl)pyridin-3-yl)methyl)phthalazin-1(2H)-one, 4-methylbenzene sulfonate]
AUC0-24 [3, 9]: 39.98 µM·h | Cmax [3, 9]: 11.9 µM | Tmax [3, 9]: 30 min | AUC0-24 [3, 10]: 23.09 µM·h | Cmax [3, 10]: 10.5 µM | Tmax [3, 10]: 15 min

C[C@]1(O)C(=O)N(c2cncc(Cc3n[nH]c(=O)c4ccccc34)c2)c2ccccc21 [Compound 1, (R)-(+)-4-((5-(3-Hydroxy-3-methyl-2-oxoindolin-1-yl)pyridin-3-yl)methyl)phthalazin-1(2H)-one]
melting point: 110 to 113 °C | GI50 [4]: 0.043 to 19.8 µM | Cmax [3, 11]: 2.56 µM | AUC(0-t) [3, 12]: 7.81 µM·h | Tmax [3, 13]: 30 min

C[C@]1(O)C(=O)N(c2cncc(Cc3n[nH]c(=O)c4ccccc34)c2)c2ccccc21.Cl [Compound 1A, (R)-(+)-4-((5-(3-Hydroxy-3-methyl-2-oxoindolin-1-yl)pyridin-3-yl)methyl)phthalazin-1(2H)-one, hydrochloride]
melting point: 226 to 228 °C | Cmax [3, 11]: 4.38 µM | AUC(0-t) [3, 12]: 23.3 µM·h | Tmax [3, 13]: 15 min
